Measurements as given in ChEMBL document CHEMBL4613303, “New Dihydrothiazole Benzensulfonamides: Looking for Selectivity toward Carbonic Anhydrase Isoforms I, II, IX, and XII” (ACS Med Chem Lett, 2020).

Target: Carbonic anhydrase 9 (Homo sapiens, UniProt Q16790)
Test: Inhibition of recombinant human carbonic anhydrase 9 incubated for 6 hrs prior to testing measured for 10 to 100 secs by phenol red-based stopped-flow CO2 hydration assay

| SMILES | Ki [µM] |
| --- | --- |
| CCn1c(-c2ccc(Br)cc2)cs/c1=N/c1ccc(S(N)(=O)=O)cc1 | 3.39 |
| CCn1c(-c2ccc(C#N)cc2)cs/c1=N/c1ccc(S(N)(=O)=O)cc1 | 4.33 |
| CCn1c(-c2cccc([N+](=O)[O-])c2)cs/c1=N/c1ccc(S(N)(=O)=O)cc1 | 0.214 |
| CCn1c(-c2ccc([N+](=O)[O-])cc2)cs/c1=N/c1ccc(S(N)(=O)=O)cc1 | 4.32 |
| CCn1c(-c2ccc(C)cc2)cs/c1=N/c1ccc(S(N)(=O)=O)cc1 | 0.358 |
| CCn1c(-c2ccccc2)cs/c1=N/c1ccc(S(N)(=O)=O)cc1 | 0.248 |
| CCn1c(-c2ccc(Cl)cc2)cs/c1=N/c1ccc(S(N)(=O)=O)cc1 | 0.109 |
| CCn1c(-c2cccs2)cs/c1=N/c1ccc(S(N)(=O)=O)cc1 | 0.297 |
| CCn1c(-c2ccc(F)cc2F)cs/c1=N/c1ccc(S(N)(=O)=O)cc1 | 0.144 |
| CCn1c(-c2ccc(-c3ccccc3)cc2)cs/c1=N/c1ccc(S(N)(=O)=O)cc1 | 4.31 |
| CCn1c(-c2ccc(F)cc2)cs/c1=N/c1ccc(S(N)(=O)=O)cc1 | 3.93 |
| CCn1c(-c2ccc(OC)cc2)cs/c1=N/c1ccc(S(N)(=O)=O)cc1 | 0.205 |
| CCn1c(-c2ccc(Cl)cc2Cl)cs/c1=N/c1ccc(S(N)(=O)=O)cc1 | 0.225 |
